Measured values from US5747235A, “Silver halide light sensitive emulsion layer having enhanced photographic sensitivity” (Eastman Kodak Company, priority 1996, dated 1998).
Counter-ions that a name gives are not always drawn.

How the values were obtained:
[1] = Example 3: spectral sensitivity, wedge spectrographic exposure, emulsion T-2; conditions: dyed control=100
Protocol: This emulsion was precipitated using deionized gelatin. […] The chemically sensitized emulsion was then used to prepare coatings containing the fragmentable two-electron donor compounds. All of the experimental coating variations in Table III contained the hydroxybenzene 2,4-disulfocatechol (HB3) at a concentration of 13 mmole/ mole Ag, added to the melt before the addition of any further addenda. Where present, the blue sensitizing dye D-I or the red sensitizing dye D-II were added from methanol solution to the emulsion at 40° C. after the chemical sensitization and disulfocatechol addition.
(§1) Additional testing was carried out to determine the response of the coatings described in Table III to a spectral exposure. Each of the coating strips was exposed for 0.1 sec on a wedge spectrographic instrument that covers the wavelength range from 400 to 750 nm. The instrument contains a tungsten light source and a step tablet ranging in density from 0 to 3 density units in 0.3 density steps. After developing exposed strips for 6 min in Kodak Rapid X-ray Developer (KRX), speed was read at 10 nm wavelength intervals at a density of 0.3 above fog. Correction for the instrument's variation in spectral irradiance with wavelength was done with a computer and a plot of log sensitivity vs. wavelength was generated. For this exposure, for each dye used, the relative sensitivity was set equal to 100 for the control coating with no fragmentable two-electron donor compound added.

[2] = Example 8: photographic speed and fog, 365 nm exposure, cubic emulsion C-2; set-up: Fog: unit not given here
Protocol: (§2) For photographic evaluation, each of the coating strips was exposed for 0.1 sec to a 365 nm emission line of a Hg lamp filtered through a Kodak Wratten filter number 18A and a step wedge ranging in density from 0 to 4 density units in 0.2 density steps. The exposed film strips were developed for 6 min in Kodak Rapid X-ray Developer (KRX). S365, relative sensitivity at 365 nm, was evaluated at a density of 0.2 units above fog.
(§3) Two cubic emulsions with uniform halide composition were precipitated using deionized gelatin. Emulsion C-1 was a AgErI emulsion with a 3% I content and a cubic edge length of 0.47 μm and emulsion C-2 was an AgBr emulsion with a cubic edge length of 0.52 μm. The emulsions were sulfur sensitized by adding 1,3-dicarboxymethyl-1,3-dimethyl-2-thiourea at 40° C.; the temperature was then raised to 60° C. at a rate of 5° C./3 min and the emulsions held for 20 min before cooling to 40° C. The amounts of the sulfur sensitizing compound used were 1.0×10^-5 mole/mole Ag for emulsion C-1, and 6.0×10^-6mole/mole Ag for emulsion C-2. These experimental coating variations contained the hydroxybenzene, 2,4-disulfocatechcol (HB3) at a concentration of 13 mmole/mole Ag, added to the melt before the addition of any further compounds. Some of the variations were then dyed with the sensitizing dye D-II, added from methanol solution. The fragmentable electron donor compounds were then added to the emulsion melts at 40° C. and coatings were prepared and tested as described in Example 1 except that the additional gelatin used to prepare the coatings described in Table VIII was deionized gelatin. Also, the dyed coatings were tested for their response to a spectral exposure as described in Example 3.

[3] = Example 8: photographic speed and fog, 365 nm exposure, cubic emulsion C-1; set-up: Fog: unit not given here; conditions: for sensitivity increase: both undyed cubic emulsions (C-1 and C-2)
Protocol: as §2, §3

[4] = Example 8: spectral sensitivity, cubic emulsion C-2; conditions: dye II 0.40 x10^-3, dyed control=100
Protocol: as §1, §3

[5] = Example 8: spectral sensitivity, cubic emulsion C-1; conditions: dye II 0.44 x10^-3, dyed control=100
Protocol: as §1, §3

[6] = Example 9: photographic speed and fog, 365 nm exposure, red dyed emulsion T-2; conditions: for Fog / S365: dye II 0.86 x10^-3; for S365: undyed control=100, dyed control 62; for 365 nm sensitivity of dyed emulsion: dye D-II
Protocol: as §2
An AgBrI tabular silver halide emulsion (Emulsion T-2) was prepared containing 4.05% total I distributed such that the central portion of the emulsion grains contained 1.5% I and the perimeter area contained substantially higher I, as described by Chang et. al., U.S. Pat. No. 5,314,793. […] This emulsion was precipitated using deionized gelatin. The emulsion was sulfur sensitized by adding 8.5×10^-6 mole 1,3-dicarboxymethyl-1,3-dimethyl-2-thiourea /mole Ag at 40° C.; the temperature was then raised to 60° C. at a rate of 5° C./3 min and the emulsions held for 20 min before cooling to 40° C. The chemically sensitized emulsion was then used to prepare coatings containing the fragmentable two-electron donor compounds. All of the experimental coating variations in Table III contained the hydroxybenzene 2,4-disulfocatechol (HB3) at a concentration of 13 mmole/ mole Ag, added to the melt before the addition of any further addenda. Where present, the blue sensitizing dye D-I or the red sensitizing dye D-II were added from methanol solution to the emulsion at 40° C. after the chemical sensitization and disulfocatechol addition. The fragmentable two-electron donor compounds were added to the emulsion at 40° C. and the coatings were prepared and tested as described in Example 1, except that the additional gelatin used to prepare the coatings described in Table III was deionized gelatin.
The sulfur sensitized AgBrI tabular emulsion T-2 as described in Example 3 was used to prepare coatings of the fragmentable two-electron donors S-15, S-14, S-13, and S-11, as described in Table IX. All of the experimental coating variations in Table IX contained the hydroxybenzene, 2,4-disulfocatechcol (HB3) at a concentration of 13 mmole/mole Ag, added to the melt before any further addenda. Where present, the red sensitizing dye D-II was added from methanol solution to the emulsion at 40° C. after the chemical sensitization and disulfocatechol addition. The fragmentable two-electron donor compounds were then added to the emulsion and coatings prepared and tested as described in Example I, except that the additional gelatin used to prepare the coatings described in Table IX was deionized gelatin.

[7] = 0.0022 x10^-3 mole/mole Ag, dye II 0.86 x10^-3
[8] = 0.022 x10^-3 mole/mole Ag, dye I 0.91 x10^-3
[9] = 0.007 x10^-3 mole/mole Ag, dye II 0.86 x10^-3
[10] = 0.07 x10^-3 mole/mole Ag, dye I 0.91 x10^-3
[11] = 0.05 x10^-3 mol/mol Ag, no dye, control=100
[12] = 0.16 x10^-3 mol/mol Ag, no dye, control=100
[13] = 0.50 x10^-3 mol/mol Ag, no dye, control=100

| SMILES | Sλ [1, 7] | Sλ [1, 8] | Sλ [1, 9] | Sλ [1, 10] | Fog ([2]; 0.16 x10^-3 mol/mol Ag, no dye) | S365 [2, 12] | Fog ([3]; 0.16 x10^-3 mol/mol Ag, no dye) | S365 [3, 12] | sensitivity increase [3] | Fog ([6]; 0.007 x10^-3 mol/mol Ag) | S365 ([6]; 0.007 x10^-3 mol/mol Ag) | Fog ([6]; 0.022 x10^-3 mol/mol Ag) | S365 ([6]; 0.022 x10^-3 mol/mol Ag) | 365 nm sensitivity of dyed emulsion [6] | other results |
| --- | --- | --- | --- | --- | --- | --- | --- | --- | --- | --- | --- | --- | --- | --- | --- |
| CCSCCN(c1ccc(C)cc1)[C@@H](C)C(=O)[O-].[Na+] [Compound S-3, N-(4-Methylphenyl)-N-(2-ethylthio-ethyl)alanine sodium salt] | 166 | 120 | – | – | – | – | – | – | – | – | – | – | – | – | – |
| CCSCCN(c1ccc(C)cc1)C(CC(=O)O)C(=O)O (stereo not shown) [Compound S-8] | 141 | 112 | 166 | 112 | – | – | – | – | – | – | – | – | – | – | – |
| CCSCCN(c1ccccc1)C(C)C(=O)O (stereo not shown) [Compound S-9, N-(Phenyl)-N-(2-thioethyl-ethyl)alanine sodium salt] | 162 | 126 | 141 | 138 | 0.06 | 209 | 0.07 | 234 | approximately a factor of two | – | – | – | – | – | Fog ([2]; 0.005 x10^-3 mol/mol Ag, dye II 0.40 x10^-3): 0.16; S365 ([2]; 0.005 x10^-3 mol/mol Ag, dye II 0.40 x10^-3, dyed control 76): 141; Fog ([2]; 0.016 x10^-3 mol/mol Ag, dye II 0.40 x10^-3): 0.19; S365 ([2]; 0.016 x10^-3 mol/mol Ag, dye II 0.40 x10^-3, dyed control 76): 166; Fog ([2]; 0.05 x10^-3 mol/mol Ag, no dye): 0.06; S365 [2, 11]: 204; Fog ([3]; 0.005 x10^-3 mol/mol Ag, dye II 0.44 x10^-3): 0.18; S365 ([3]; 0.005 x10^-3 mol/mol Ag, dye II 0.44 x10^-3, dyed control 105): 162; Fog ([3]; 0.016 x10^-3 mol/mol Ag, dye II 0.44 x10^-3): 0.21; S365 ([3]; 0.016 x10^-3 mol/mol Ag, dye II 0.44 x10^-3, dyed control 105): 191; Fog ([3]; 0.05 x10^-3 mol/mol Ag, no dye): 0.07; S365 [3, 11]: 229; Sλ ([4]; 0.005 x10^-3 mol/mol Ag): 159; Sλ ([4]; 0.016 x10^-3 mol/mol Ag): 195; Sλ ([5]; 0.005 x10^-3 mol/mol Ag): 145; Sλ ([5]; 0.016 x10^-3 mol/mol Ag): 178 |
| CCSCCN(c1ccc(C(=O)O)cc1)C(C)C(=O)O (stereo not shown) [Compound S-11] | – | – | – | – | 0.06 | 200 | 0.07 | 219 | approximately a factor of two | 0.12 | 87 | 0.13 | 100 | restored to that of the undyed emulsion | Fog ([2]; 0.05 x10^-3 mol/mol Ag, dye II 0.40 x10^-3): 0.10; S365 ([2]; 0.05 x10^-3 mol/mol Ag, dye II 0.40 x10^-3, dyed control 76): 145; Fog ([2]; 0.16 x10^-3 mol/mol Ag, dye II 0.40 x10^-3): 0.14; S365 ([2]; 0.16 x10^-3 mol/mol Ag, dye II 0.40 x10^-3, dyed control 76): 166; Fog ([2]; 0.50 x10^-3 mol/mol Ag, no dye): 0.06; S365 [2, 13]: 209; Fog ([3]; 0.05 x10^-3 mol/mol Ag, dye II 0.44 x10^-3): 0.14; S365 ([3]; 0.05 x10^-3 mol/mol Ag, dye II 0.44 x10^-3, dyed control 105): 162; Fog ([3]; 0.16 x10^-3 mol/mol Ag, dye II 0.44 x10^-3): 0.16; S365 ([3]; 0.16 x10^-3 mol/mol Ag, dye II 0.44 x10^-3, dyed control 105): 186; Fog ([3]; 0.50 x10^-3 mol/mol Ag, no dye): 0.07; S365 [3, 13]: 234; Sλ ([4]; 0.05 x10^-3 mol/mol Ag): 159; Sλ ([4]; 0.16 x10^-3 mol/mol Ag): 186; Sλ ([5]; 0.05 x10^-3 mol/mol Ag): 151; Sλ ([5]; 0.16 x10^-3 mol/mol Ag): 178 |
| CCSCCN(c1cccc(C(N)=O)c1)C(C)C(=O)O (stereo not shown) [Compound S-13] | – | – | – | – | – | – | – | – | – | 0.13 | 95 | 0.20 | 102 | restored to that of the undyed emulsion | – |
| CCSCCN(c1ccccc1)C(CC(=O)O)C(=O)O (stereo not shown) [Compound S-14] | – | – | – | – | – | – | – | – | – | 0.11 | 89 | 0.14 | 97 | restored to that of the undyed emulsion | – |
